Test results published in US20130143835A1, “HCV Polymerase Inhibitors” (MEDIVIR AB, priority 2011, published 2013).

Legend:
HCV NS5B-21 = molecular target: T1, HCV NS5B-21 (Hepatitis C virus genotype 1b, UniProt Q9WMX2); experiment: HCV NS5B-21 enzyme assay (SPA, 3H-ATP incorporation); assay type: biochemical; settings: HCV NS5B-21 SPA enzyme assay, triphosphate tested
T1 construct: HCV NS5B-21 (21-aminoacid C-terminally truncated version); purchased Replizyme
Description: It is this triphosphate which is believed to be the antivirally active species. The enzyme assay described here example may be used to confirm that compounds of the invention are antivirally active as the 5′-triphosphate metabolite.
The enzyme assay measures the inhibitory effect of triphosphate compounds in an HCV NS5B-21 (21-aminoacid C-terminally truncated version) SPA assay (scintillation proximity assay). The assay is performed by evaluating the amount of radiolabelled ATP incorporated by HCV NS5B-21 into newly synthesized RNA using an heterogeneous biotinylated RNA template.
To determine IC50 values the compounds are tested at various concentrations in a final volume of 100 μl of reaction mixture. The reaction is stopped by addition of 0.5M EDTA solution. The samples are transferred into flashplates precoated with streptavidin. The incorporated radioactivity is quantified using a scintillation counter (Wallac Microbeta Trilux).
The assay should include enzyme controls (about four, containing 1 μl DMSO instead of inhibitor) and background control containing all ingredients except template.
Compounds are serially diluted in DMSO on a separate dilution plate to 100× the final desired assay concentrations. […]
Incubate the plate over night and read the flash plate in the Microbeta Trilux using the protocol Flash plates H3. […]
IC50 is determined using Graphpad Prism. […]

[1] = system: HCV type 1b replicon in Huh-7 luc/neo (Huh-Luc) cells; experiment: HCV replicon assay (Huh-Luc cells, luciferase read-out); assay type: cell-based; settings: inhibition of HCV replication, three days incubation, luciferase activity
Description: The in vitro antiviral activity against HCV of the compounds of formula I can be tested in a cellular HCV replicon system based on Lohmann et al. (1999) Science 285:110-113, with the further modifications described by Krieger et al. (2001) Journal of Virology 75: 4614-4624 (incorporated herein by reference), which is further exemplified in the examples section. This model, while not a complete infection model for HCV, is widely accepted as the most robust and efficient model of autonomous HCV RNA replication currently available. It will be appreciated that it is important to distinguish between compounds that specifically interfere with HCV functions from those that exert cytotoxic or cytostatic effects in the HCV replicon model, and as a consequence cause a decrease in HCV RNA or linked reporter enzyme concentration. Assays are known in the field for the evaluation of cellular cytotoxicity based for example on the activity of mitochondrial enzymes using fluorogenic redox dyes such as resazurin. Furthermore, cellular counter screens exist for the evaluation of non-selective inhibition of linked reporter gene activity, such as firefly luciferase. Appropriate cell types can be equipped by stable transfection with a luciferase reporter gene whose expression is dependent on a constitutively active gene promoter, and such cells can be used as a counter-screen to eliminate non-selective inhibitors.
The compounds of formula I may be examined for activity in the inhibition of HCV RNA replication in a cellular assay aimed at identifying compounds that inhibit a HCV functional cellular replicating cell line, also known as HCV replicons. A suitable cellular assay is based on a bicistronic expression construct, as described by Lohmann et al. (1999), Science vol. 285 pp. 110-113 with modifications described by Krieger et al. (2001), Journal of Virology 75: 4614-4624, in a multi-target screening strategy.
The assay utilizes the stably transfected cell line Huh-7 luc/neo (hereafter referred to as Huh-Luc). This cell line harbors an RNA encoding a bicistronic expression construct comprising the wild type NS3-NS5B regions of HCV type 1b translated from an Internal Ribosome Entry Site (IRES) from encephalomyocarditis virus (EMCV), preceded by a reporter portion (FfL-luciferase), and a selectable marker portion (neo^R, neomycine phosphotransferase). The construct is bordered by 5′ and 3′ NTRs (non-translated regions) from HCV type 1b. Continued culture of the replicon cells in the presence of G418 (neo^R) is dependent on the replication of the HCV RNA. The stably transfected replicon cells that express HCV RNA, which replicates autonomously and to high levels, encoding inter alia luciferase, are used for screening the antiviral compounds.
The replicon cells are plated in 384 well plates in the presence of the test and control compounds which are added in various concentrations. Following an incubation of three days, HCV replication is measured by assaying luciferase activity (using standard luciferase assay substrates and reagents and a Perkin Elmer ViewLux™ ultraHTS microplate imager). Replicon cells in the control cultures have high luciferase expression in the absence of any inhibitor. The inhibitory activity of a compound on luciferase activity is monitored on the Huh-Luc cells, enabling a dose-response curve for each test compound. EC50 values are then calculated, which value represents the amount of the compound required to decrease the level of detected luciferase activity by 50%, or more specifically, the ability of the genetically linked HCV replicon RNA to replicate.

| SMILES | EC50 [1] [µM] | also measured |
| --- | --- | --- |
| C[C@@]1(N)[C@H](O)[C@@H](COP(=O)(O)OP(=O)(O)OP(=O)(O)O)O[C@H]1n1ccc(=O)[nH]c1=O [Example 3, potassium ((2R,3S,4R,5R)-4-amino-5-(2,4-dioxo-3,4-dihydropyrimidin-1(2H)-yl)-3-hydroxy-4-methyltetrahydrofuran-2-yl)methyl triphosphate] |  | IC50 (HCV NS5B-21): 13 µM |
| CC(C)OC(=O)[C@H](C)NP(=O)(OC[C@H]1O[C@@H](n2ccc(=O)[nH]c2=O)[C@](C)(N)[C@@H]1O)Oc1ccccc1 (single isomer, unassigned) [Example 9B] | 0.92 |  |
| CCCOC(=O)[C@H](C)NP(=O)(OC[C@H]1O[C@@H](n2ccc(=O)[nH]c2=O)[C@](C)(N)[C@@H]1O)Oc1ccccc1 (single isomer, unassigned) [Example 24A] |  | EC50 ([1]; Hepatitis C virus, Huh-7, 72 h): 2.9 µM |
| C[C@@]1(N)[C@H](O)[C@@H](CO)O[C@H]1n1ccc(=O)[nH]c1=O [Example 1, 1-((2R,3R,4S,5R)-3-amino-4-hydroxy-5-(hydroxymethyl)-3-methyltetrahydrofuran-2-yl)pyrimidine-2,4(1H,3H)-dione] |  | EC50 ([1]; Hepatitis C virus, Huh-7, 72 h): > 50 µM |
| CCCCCOC(=O)[C@H](C)NP(=O)(OC[C@H]1O[C@@H](n2ccc(=O)[nH]c2=O)[C@](C)(N)[C@@H]1O)Oc1ccccc1 (single isomer, unassigned) [Example 18A] | 1.8 |  |
| CCCCCOC(=O)[C@H](C)NP(=O)(OC[C@H]1O[C@@H](n2ccc(=O)[nH]c2=O)[C@](C)(N)[C@@H]1O)Oc1ccccc1 (single isomer, unassigned) [Example 18B] | 0.32 |  |
| CC[C@@H](C)OC(=O)[C@H](C)NP(=O)(OC[C@H]1O[C@@H](n2ccc(=O)[nH]c2=O)[C@](C)(N)[C@@H]1O)Oc1ccccc1 (single isomer, unassigned) [Example 22B] | 0.66 |  |
| CCCCOC(=O)[C@H](C)NP(=O)(OC[C@H]1O[C@@H](n2ccc(=O)[nH]c2=O)[C@](C)(N)[C@@H]1O)Oc1ccccc1 (single isomer, unassigned) [Example 19A] | 1.4 |  |
| CCOC(=O)[C@H](C)NP(=O)(OC[C@H]1O[C@@H](n2ccc(=O)[nH]c2=O)[C@](C)(N)[C@@H]1O)Oc1ccccc1 (single isomer, unassigned) [Example 11B] | 0.98 |  |
| C[C@@]1(N)[C@H](O)[C@@H](COP(=O)(O)O)O[C@H]1n1ccc(=O)[nH]c1=O [Example 4, ((2R,3S,4R,5R)-4-amino-5-(2,4-dioxo-3,4-dihydropyrimidin-1(2H)-yl)-3-hydroxy-4-methyltetrahydrofuran-2-yl)methyl dihydrogen Phosphate] | > 50 |  |
| CCC[C@H](C)OC(=O)[C@@H](C)NP(=O)(OC[C@H]1O[C@@H](n2ccc(=O)[nH]c2=O)[C@](C)(N)[C@@H]1O)Oc1ccccc1 (single isomer, unassigned) [Example 25A] | 4.7 |  |
| CCC(CC)COC(=O)[C@H](C)NP(=O)(OC[C@H]1O[C@@H](n2ccc(=O)[nH]c2=O)[C@](C)(N)[C@@H]1O)Oc1ccccc1 (single isomer, unassigned) [Example 20A] | 1.6 |  |
| C[C@H](NP(=O)(OC[C@H]1O[C@@H](n2ccc(=O)[nH]c2=O)[C@](C)(N)[C@@H]1O)Oc1ccccc1)C(=O)OCC1CCCC1 (single isomer, unassigned) [Example 27A] | 2.2 |  |
| C[C@H](NP(=O)(OC[C@H]1O[C@@H](n2ccc(=O)[nH]c2=O)[C@](C)(N)[C@@H]1O)Oc1ccccc1)C(=O)OC1CCCCC1 (single isomer, unassigned) [Example 12B] | 0.13 |  |
